Tests used:
[1] = test system: classical Hodgkin lymphoma L-540 cell line; assay: In vitro cytotoxicity, trypan blue dye exclusion, 72 h; type: cell-based, human; conditions: L-540 cells; for IC50: trypan blue assay
Method: Complexes 1 and 2 were dissolved (10 mM) in DMSO and stored at −80° C. at volumes of 500 μL or aliquots with volumes of 10 μL were taken and stored at −20° C. (used once without refreezing). The compounds were then diluted in RPMI medium immediately before use. Cisplatin was purchased from Mayne Pharma. Culture medium with the same amount of drug-free DMSO was used as a negative control.
The classical Hodgkin lymphoma L-540 cell line was obtained from the German Collection of Microorganisms and Cell Cultures (Braunschweig, Germany). Human ovarian epithelial carcinoma-derived cancer cells A2780 and its cisplatin-resistant clone A2780cis were from Sigma, Inc. (St. Louis, Mo., USA). The parent cisplatin-resistant subclone A2780cis was maintained by weekly treatment with 1 μM cisplatin (N. Casagrande, M. Celegato, C. Borghese, M. Mongiat, A. Colombatti, and D. Aldinucci, Clin. Cancer Res. vol. 20, pp. 5496-5506, 2014, incorporated herein by reference in its entirety). Cells were cultured at 37° C. in 5% CO2 in RPMI medium supplemented with 10% heat-inactivated FBS, 0.1% (w/v) L-glutamine and antibiotics (0.2 mg/mL penicillin and streptomycin).
For the cell proliferation assay, 4.0×10^3 A2780 and A2780cis cells were seeded in 96-well flat-bottomed microplates in RPMI medium (100 μL) and incubated at 37° C. in a 5% CO2 atmosphere for 24 h (to allow cell adhesion) before drug testing. The medium was then removed and replaced with fresh medium containing the compounds to be tested and cisplatin at increasing concentrations (from 1 to 100 μM) at 37° C. for 72 h. Each treatment was performed in triplicate. Cell proliferation was assayed using the MTT assay. L-540 cells (2.0×10^5/ml) were seeded in 48-well plates and treated with increasing concentrations of complex 1 and complex 2. After 72 hours, the number of viable cells was evaluated by a trypan blue dye exclusion. […]

[2] = test system: ovarian epithelial carcinoma-derived cancer cells A2780; assay: Cell proliferation MTT assay, 72 h; type: cell-based, human; conditions: mean±SEM
Method: (§1) Complexes 1 and 2 were dissolved (10 mM) in DMSO and stored at -80° C. at volumes of 500 μL or aliquots with volumes of 10 μL were taken and stored at -20° C. (used once without refreezing). The compounds were then diluted in RPMI medium immediately before use. Cisplatin was purchased from Mayne Pharma. Culture medium with the same amount of drug-free DMSO was used as a negative control. The classical Hodgkin lymphoma L-540 cell line was obtained from the German Collection of Microorganisms and Cell Cultures (Braunschweig, Germany). Human ovarian epithelial carcinoma-derived cancer cells A2780 and its cisplatin-resistant clone A2780cis were from Sigma, Inc. (St. Louis, Mo., USA). The parent cisplatin-resistant subclone A2780cis was maintained by weekly treatment with 1 μM cisplatin ([…]. Celegato, C. Borghese, M. Mongiat, A. Colombatti, and D. Aldinucci, Clin. Cancer Res. vol. 20, pp. 5496-5506, 2014, incorporated herein by reference in its entirety). Cells were cultured at 37° C. in 5% CO2 in RPMI medium supplemented with 10% heat-inactivated FBS, 0.1% (w/v) L-glutamine and antibiotics (0.2 mg/mL penicillin and streptomycin). For the cell proliferation assay, 4.0×10^3 A2780 and A2780cis cells were seeded in 96-well flat-bottomed microplates in RPMI medium (100 μL) and incubated at 37° C. in a 5% CO2 atmosphere for 24 h (to allow cell adhesion) before drug testing. The medium was then removed and replaced with fresh medium containing the compounds to be tested and cisplatin at increasing concentrations (from 1 to 100 μM) at 37° C. for 72 h. Each treatment was performed in triplicate. Cell proliferation was assayed using the MTT assay. L-540 cells (2.0×10^5/ml) were seeded in 48-well plates and treated with increasing concentrations of complex 1 and complex 2. After 72 hours, the number of viable cells was evaluated by a trypan blue dye exclusion. The IC50 values (i.e., the half maximal inhibitory concentration, representing the concentration of a substance required for 50% inhibition in vitro) were calculated using CalcuSyn software (Biosoft, Ferguson, Mo., USA) (T. C. Chou, and P. Talalay, Adv. Enzyme Regul. vol. 22, pp. 27-55, 1984, incorporated herein by reference in its entirety). The results were presented as the mean±SEM of three replicate wells from three independent experiments. The cells were imaged under an inverted microscope (Eclipse TS/100, Nikon) with a photomicrographic system (DS Camera Control Unit DS-L2). Phase contrast micrographs were taken at a magnification of 4× (for L-540 cells) and 10× (for A2780 and A2780cis cells).

[3] = test system: cisplatin-resistant clone A2780cis; assay: Cell proliferation MTT assay, 72 h; type: cell-based, human; conditions: for IC50: A2780cis cells, 72 h, MTT, mean±SEM; for Fold resistance A2780cis/A2780 ratio: ratio of IC50 A2780cis to A2780
Method: as §1

[4] = Kinetics of substitution reaction of gold(III) complexes with glutathione (UV-vis, 297 nm); type: physicochemical; conditions: for second-order rate constant k for the reaction with GSH: at 298K, 20 mM NaCl, 297 nm; for ΔH^† activation enthalpy, reaction with GSH / ΔS^† activation entropy, reaction with GSH: from Eyring plots
Method: All kinetics measurements were made using a UV-vis spectrophotometer (Agilent Technologies, Cary 100 UV-Vis). Scanning kinetic mode was used to investigate the change in the electronic spectra for gold(III) complexes upon interaction with GSH to determine the effective wavelength for the reactions. Then, the kinetic mode was used to monitor the reaction progress at the selected wavelength. A solution containing 0.2 mM gold(III) complexes was prepared in water, and 40 mM sodium chloride was added to improve the stability of the mononuclear-gold(III) complexes by preventing hydrolysis of the chlorides (A. Djeković, B. Petrović, Z. D. Bugarcić, R. Puchta, and R. van Eldik, Dalton Trans., vol. 41, no. 13, pp. 3633-41, 2012, incorporated herein by reference in its entirety). A series of GSH solutions was also prepared. Equal volumes of gold(III) complex solution and GSH solution were mixed, and the spectral changes recorded using the scanning kinetic mode in the range from 200 nm to 350 nm. Then, the kinetic mode was used to follow the reaction at three different temperatures. The reaction between the gold(III)-diamine complexes and the GSH ligand to form gold(III)-complexes can be illustrated in following equation: […]
The rate (k) of the described reactions can be calculated from the slope of the linear plot of kobs versus GSH concentration according to eqn (1), where the rate of the reverse reaction (k−1) is obtained from the intercept of the straight line. kobs=k[GSH]+k−1[Cl] Eqn (1)
Using Microsoft Excel, the rate constants and activation parameters were calculated from Eyring plots: […]
The kinetics of the substitution reaction between the synthesized anticancer gold(III) complexes 1 and 2 with tripeptide glutathione were investigated spectrophotometrically by monitoring the spectral changes of the gold(III) complexes in solution with excess of GSH. […] Equal volumes of the gold(III) complexes and GSH were kept until thermal equilibration was achieved and then mixed directly inside a UV cell. The changes in the absorption at a selected wavelength (297 nm) under pseudo-first order conditions as functions of the glutathione concentration and temperature were collected. The […] rate constant (k) was obtained from the linear plot of kobs versus the total GSH concentration (1). NaCl was added in excess to avoid the hydrolysis of mononuclear-gold(III) diamine chloride, but this was not found to be effective for complex 2 (FIG. 2).

| IC50 ([2]; listed as 2) | IC50 ([2]; listed as (2)) | IC50 [3] | Compound | fold more active than complex 1 (L-540 IC50) [1] | IC50 [1] | Fold resistance A2780cis/A2780 ratio [3] | Ea activation energy, reaction with GSH [4] | second-order rate constant k for the reaction with GSH [4] | ΔH^† activation enthalpy, reaction with GSH [4] | ΔS^† activation entropy, reaction with GSH [4] | IC50 [2] | Fold resistance A2780cis/A2780 ratio ([3]; listed as cisplatin) |
| --- | --- | --- | --- | --- | --- | --- | --- | --- | --- | --- | --- | --- |
| 6.98 µM | 6.9 ± 0.6 µM | 31.1 µM | NC1CCCCC1N.NC1CCCCC1N.[Au+3].[Cl-].[Cl-].[Cl-] [Complex 2, 1(R),2(R)-[(DACH)2Au]Cl3] | 7 fold | 9.8 µM | 4.45 | 4.54 kcal/mol | 0.31 M⁻¹ s⁻¹ | 4.06 kcal/mol | −189 JK^−1mol^−1 |  |  |
|  |  | 61.3 µM | NC1CCCCC1N.[Au+3].[Cl-].[Cl-].[Cl-] [Complex 1, 1(R),2(R)-[(DACH)AuCl2]Cl] |  | 70.4 µM | 3.90 | 7.65 kcal/mol | 1.14 M⁻¹ s⁻¹ | 7.17 kcal/mol | −137 JK^−1mol^−1 | 15.7 µM |  |

| Compound | IC50 ([2]; listed as 2) | IC50 ([2]; listed as (2)) | IC50 [3] | fold more active than complex 1 (L-540 IC50) [1] | IC50 [1] | Fold resistance A2780cis/A2780 ratio [3] | Ea activation energy, reaction with GSH [4] | second-order rate constant k for the reaction with GSH [4] | ΔH^† activation enthalpy, reaction with GSH [4] | ΔS^† activation entropy, reaction with GSH [4] | IC50 [2] | Fold resistance A2780cis/A2780 ratio ([3]; listed as cisplatin) |
| --- | --- | --- | --- | --- | --- | --- | --- | --- | --- | --- | --- | --- |
| N.N.[Cl][Pt][Cl] [Cisplatin, reference compound] |  |  | 17.6 µM |  |  | 9.77 |  |  |  |  | 1.8 µM | 9.7 |

Source: US9657035B1, “Method of treating cancer and gold(III) complexes as anti-cancer agents” (KING FAHD UNIVERSITY OF PETROLEUM AND MINERALS, priority 2015, dated 2017)
